Data reported in the supplement of paper PMC11061612.

Tests used:
Test in all cases: Bliss excess, mean over the matrix (fraction); higher = more synergy
[1] = system: SNU-175 (Colorectal Carcinoma)
How it was run: (§1)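 Cell lines grown in DMEM/F12 or RPMI with 10% FBS were plated in 1536-well plates and held 24 hours at 37°C, 5% CO2 before 72 hours of exposure to two-drug dose matrices, with DMSO typically at 0.2%. CellTiter-Glo 2.0 luminescence gave viability, which was converted to inhibition. Vehicle wells were set to 0 and blank wells to 1. Combination Emax is the second-highest inhibition in the matrix, and Bliss excess is the observed combination effect minus the expected EA + EB − EA·EB, where EA and EB are the single-agent effects.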

[2] = system: HSC-3 (Oral Cavity Carcinoma)
How it was run: as §1

[3] = system: KYSE-70 (Esophageal Squamous Cell Carcinoma)
How it was run: as §1

[4] = system: NCI-H1755 (Lung Adenocarcinoma)
How it was run: as §1

[5] = system: NCI-H1155 (Non-Small Cell Lung Carcinoma)
How it was run: as §1

[6] = system: RMG-I (Ovarian Carcinoma)
How it was run: as §1

[7] = system: OVTOKO (Ovarian Carcinoma)
How it was run: as §1

[8] = system: OV-90 (Ovarian Carcinoma)
How it was run: as §1

[9] = system: RT4 (Bladder Carcinoma)
How it was run: as §1

[10] = system: PANC-02-03 (Pancreatic Carcinoma)
How it was run: as §1

[11] = system: HuO-3N1 (Osteosarcoma)
How it was run: as §1

[12] = system: RPMI-8866 (Chronic Myelogenous Leukemia)
How it was run: as §1

[13] = system: AN3-CA (Endometrial Carcinoma)
How it was run: as §1

[14] = system: Caov-3 (Ovarian Carcinoma)
How it was run: as §1

[15] = system: SK-MM-2 (Plasma Cell Myeloma)
How it was run: as §1

[16] = system: AsPC-1 (Pancreatic Carcinoma)
How it was run: as §1

[17] = system: NKM-1 (Acute Myeloid Leukemia)
How it was run: as §1

[18] = system: KYM-1 (Rhabdomyosarcoma)
How it was run: as §1

[19] = system: JHH-1 (Hepatocellular Carcinoma)
How it was run: as §1

[20] = system: SJRH30 (Rhabdomyosarcoma)
How it was run: as §1

SMILES | Bliss excess [1] | Bliss excess [2] | Bliss excess [3] | Bliss excess [4] | Bliss excess [5] | Bliss excess [6] | Bliss excess [7] | Bliss excess [8] | Bliss excess [9] | Bliss excess [10] | Bliss excess [11] | Bliss excess [12] | Bliss excess [13] | Bliss excess [14] | Bliss excess [15] | Bliss excess [16] | Bliss excess [17] | Bliss excess [18] | Bliss excess [19] | Bliss excess [20]
Cc1c2c(nn1C)CSCc1cc(n(C)n1)CSc1cc(c3ccccc3c1)OCCCc1c(C(=O)O)n(C)c3c-2c(Cl)ccc13 [AZD5991] + C[C@@H]1COCCN1C2=NC(=NC(=C2)C3(CC3)[S@](=N)(=O)C)C4=C5C=CNC5=NC=C4 [AZD6738] (first compound max 1 µM, 7x7, partner max 10 µM) | 0.135 | 0.0094 | 0.0485 | -0.0171 | 0.0521 | 0.0575 | 0.0404 | 0.0235 | 0.0537 | 0.0205 | 0.0446 | 0.0013 | 0.0454 | 0.0293 | -0.0607 | 0.0026 | 0.024 | 0.1 | 0.106 | 0.0225
C=CCn1c(=O)c2cnc(Nc3ccc(N4CCN(C)CC4)cc3)nc2n1-c1cccc(C(C)(C)O)n1 [AZD1775] + O=C(c1cc(Cc2n[nH]c(=O)c3ccccc23)ccc1F)N1CCN(C(=O)C2CC2)CC1 [Olaparib] (first compound max 1 µM, partner max 10 µM) | -0.0028 | 0.0013 | -0.0188 | -0.0291 | 0.0355 | -0.0105 | -0.0514 | -0.0424 | 0.0107 | -0.0513 | -0.0835 | -0.0528 | 0.0003 | -0.0396 | -0.0471 | 0.0039 | -0.0375 | 0.0188 | -0.0244 | -0.0057
CC(=O)Nc1cccc(-n2c(=O)n(C3CC3)c(=O)c3c(Nc4ccc(I)cc4F)n(C)c(=O)c(C)c32)c1 [Trametinib] + Cc1nc(-c2cn3c(n2)-c2ccc(-c4cnn(C(C)(C)C(N)=O)c4)cc2OCC3)n(C(C)C)n1 [Taselisib] (first compound max 1 µM, 7x7, partner max 10 µM) | 0.0779 | 0.15 | 0.182 | 0.115 | 0.0426 | -0.0099 | 0.0659 | 0.0922 | 0.0566 | 0.179 | 0.0402 | 0.118 | 0.0575 | 0.0289 | 0.0386 | 0.0654 | 0.255 | 0.0424 | 0.0177 | 0.076
COc1cccc(OCCCN)c1-c1cc(Nc2cnc(C#N)cn2)n[nH]1 [Prexasertib] + C=CCn1c(=O)c2cnc(Nc3ccc(N4CCN(C)CC4)cc3)nc2n1-c1cccc(C(C)(C)O)n1 [AZD1775] (first compound max 1 µM, partner max 1 µM) | 0.0595 | 0.121 | 0.0874 | -0.0104 | 0.0998 | 0.0265 | -0.0519 | -0.0477 | 0.128 | 0.0504 | 0.122 | 0.0591 | 0.0766 | -0.0546 | 0.0085 | -0.0189 | 0.056 | 0.0713 | 0.0105 | 0.108
Cc1c2c(nn1C)CSCc1cc(n(C)n1)CSc1cc(c3ccccc3c1)OCCCc1c(C(=O)O)n(C)c3c-2c(Cl)ccc13 [AZD5991] + C[C@@H](Nc1cc(F)cc(F)c1)c1cc(C(=O)N(C)C)cc2c(=O)cc(N3CCOCC3)oc12 [AZD8186] (first compound max 1 µM, 7x7, partner max 3 µM) | 0.0048 | -0.001 | -0.0136 | 0.0317 | -0.0105 | -0.0247 | -0.0196 | -0.0496 | 0.0434 | -0.0327 | 0.0324 | -0.041 | 0.0606 | 0.0338 | -0.0419 | -0.0414 | -0.0247 | 0.0291 | 0.0056 | -0.0138
C=CCn1c(=O)c2cnc(Nc3ccc(N4CCN(C)CC4)cc3)nc2n1-c1cccc(C(C)(C)O)n1 [AZD1775] + C[C@@H]1COCCN1C2=NC(=NC(=C2)C3(CC3)[S@](=N)(=O)C)C4=C5C=CNC5=NC=C4 [AZD6738] (first compound max 1 µM, partner max 10 µM) | 0.039 | 0.0038 | 0.0329 | -0.0276 | 0.0817 | -0.0161 | -0.0308 | -0.102 | -0.0068 | -0.0701 | 0.0162 | 0.0078 | -0.0159 | -0.025 | -0.0211 | -0.0571 | 0.0023 | 0.0587 | 0.0194 | 0.0467
CCN(CCO)CCCOc1ccc2c(Nc3cc(CC(=O)Nc4cccc(F)c4)[nH]n3)ncnc2c1 [AZD2811] + C=CCn1c(=O)c2cnc(Nc3ccc(N4CCN(C)CC4)cc3)nc2n1-c1cccc(C(C)(C)O)n1 [AZD1775] (first compound max 1 µM, partner max 1 µM) | -0.0108 | 0.0504 | -0.0449 | -0.0428 | 0.0451 | -0.0711 | -0.0353 | 0.021 | 0.0196 | -0.0628 | -0.0504 | 0.0714 | 0.0276 | -0.0603 | -0.0005 | -0.0738 | 0.0269 | -0.0096 | -0.0609 | 0.0089
CN(CCO)CC[C@H](CSc1ccccc1)Nc1ccc(S(=O)(=O)NC(=O)c2ccc(N3CCC([C@@H](O)c4ccccc4-c4ccc(Cl)cc4)CC3)cc2)cc1S(=O)(=O)C(F)(F)F [AZD4320] + CCN(CCO)CCCOc1ccc2c(Nc3cc(CC(=O)Nc4cccc(F)c4)[nH]n3)ncnc2c1 [AZD2811] (first compound max 1 µM, 7x7, partner max 1 µM) | 0.0362 | 0.0257 | 0.0483 | -0.0024 | 0.127 | -0.0297 | -0.0324 | 0.0409 | 0.163 | -0.0246 | -0.0051 | 0.234 | 0.101 | 0.0419 | -0.0113 | -0.0294 | 0.0403 | -0.01 | 0.0925 | 0.108
